Columns and labels:
flies = assay: Development of flies under doxycycline; format: in vivo, Drosophila
mice = details: 2 mg/ml in the drinking water, chronic; cited from earlier work
Drosophila melanogaster = assay: Screen of individual and combined compounds on age-related physiological parameters (maximal heart rate and exercise capacity); format: in vivo; details: separate study of the five best combinations with larger number of flies; FIG. 3
From the text: The first dataset of combined interventions. We performed an initial screen of compounds for their effects on cardiac aging in Drosophila, selected for their very general effects on multiple biological functions, known low toxicity and, for some, known effects on aging in other models (Wood et al., Nature 430:686-689, 2004).
After screening 44 compounds individually at multiple doses (a total of 300 groups, each composed of 10-20 flies), we chose two doses each of four compounds for more comprehensive measurements of their combined effects on three age-related phenotypes: maximal heart rate and exercise capacity declines with age and survival. […]

In the case of `C[C@H]1c2cccc(O)c2C(=O)C2=C(O)[C@]3(O)C(=O)C(C(N)=O)=C(O)[C@@H](N(C)C)[C@@H]3[C@@H](O)[C@@H]21` [doxycycline], the “effect on development in flies” value (flies) is listed as “slows development”, the “effect on body weight” value (mice) is listed as “no effect” and the plasma levels (mice) is listed as “close to saturation”.

With `Oc1ccc(C=Cc2cc(O)cc(O)c2)cc1` [resveratrol] the “functional improvement confirmed in additional tests (climbing velocity and maximal heart rate)” value (Drosophila melanogaster) was “not”.

— US20090087497A1, “Compositions and methods for treating symptoms of aging” (Burnham Institute for Medical Research, priority 2007, published 2009)
